Measurements taken from article PMC3169196 (Journal of medicinal chemistry, 2011).

Tests used:
[1] = system: protein translation; assay: 35S-Methionine labeled protein translation assay; assay type: cell-based; conditions: 2, 4 and 8μM for 8 hours
[2] = biological target: T1, eEF1A2 (Homo sapiens, UniProt Q05639); assay type: binding; conditions: biotinylated compounds on SA chip; apparent KDs unreliable
T1 sequence (Q05639 1-463): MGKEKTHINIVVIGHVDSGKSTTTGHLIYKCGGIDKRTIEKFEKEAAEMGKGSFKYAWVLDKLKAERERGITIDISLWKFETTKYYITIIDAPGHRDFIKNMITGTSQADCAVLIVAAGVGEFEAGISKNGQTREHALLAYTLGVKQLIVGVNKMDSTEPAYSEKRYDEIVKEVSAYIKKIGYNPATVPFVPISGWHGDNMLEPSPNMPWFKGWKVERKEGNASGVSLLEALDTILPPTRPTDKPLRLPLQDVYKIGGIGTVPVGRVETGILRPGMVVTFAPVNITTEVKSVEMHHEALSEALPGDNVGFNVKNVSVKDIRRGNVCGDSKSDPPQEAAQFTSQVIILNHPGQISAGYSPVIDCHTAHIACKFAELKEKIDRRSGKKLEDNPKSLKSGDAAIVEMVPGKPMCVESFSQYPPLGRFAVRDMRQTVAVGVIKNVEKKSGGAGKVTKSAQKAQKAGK

[3] = system: Akt (Ser473 and Thr308 phosphorylation); assay: Western blot analysis of Akt phosphorylation in MDA-MB-231 cells; assay type: cell-based, human; conditions: MDA-MB-231, 2μM for 6 hours and 12 hours
[4] = system: MCF10A cells; assay: MTT assay with immortalized normal breast cells MCF10A; assay type: cell-based, human; conditions: for killing of normal MCF10A cells: compared with cancerous MCF-7 and MDA-MB-231 cells
[5] = system: MDA-MB-231 cells; assay: MTT assay, antiproliferative activity in MDA-MB-231; assay type: cell-based, human; conditions: for in vitro anticancer activity at single concentration: MDA-MB-231, 10μM of each analogue for three days
[6] = system: eukaryotic elongation factor 1A1 (eEF1A1); conditions: four rounds of biopanning, 12 phage clones per compound sequenced
[7] = system: MCF-7 cells; assay: MTT assay, antiproliferative activity in MCF-7; assay type: cell-based, human; conditions: MCF-7, 10μM of each analogue for three days
[8] = system: eEF1A; assay type: binding, human; conditions: biotinylated compound, MDA-MB-231 cell lysate, neutravidin beads, western blot

## CC(C)C[C@H](NC(=O)c1ccc(-c2cc(=O)c3cc([N+](=O)[O-])c(N[C@H](C)C4CCCCC4)cc3o2)cc1)C(N)=O [Compound 39]
[1]
  35S-methionine incorporation into cellular proteins: decreased ^35S-methionine incorporation into cellular proteins in a dose-dependent manner
[2]
  binding of eEF1A2 (SPR): selectively bind to eEF1A2
[3]
  phosphorylation of serine 473 and threonine 308 in Akt: able to suppress phosphorylation
[4]; at 50μM
  normal MCF10A cells killed: about 65%
[5]; MDA-MB-231
  decrease in IC50 compared to 10: 5 fold

## CC(C)CNc1nc2cc3c(=O)cc(-c4ccc(C(=O)N[C@@H](Cc5ccccc5)C(N)=O)cc4)oc3cc2n1Cc1ccccc1 [Compound 24]
[6]
  binding protein recovered from phage clones: Eukaryotic elongation factor 1A 1 (eEF1A1) was also recovered
[7]
  in vitro anticancer activity at single concentration: among the most active compounds
[8]
  binding of eEF1A in pull down: eEF1A did indeed bind
[4]
  killing of normal MCF10A cells: killed normal MCF10A cell in a similar manner as cancerous MCF-7 and MDA-MB-213 cells
[5]
  in vitro anticancer activity at single concentration: among the most active compounds

## COc1ccc(Nc2nc3cc4c(=O)cc(-c5ccc(C(=O)N[C@@H](CC(C)C)C(N)=O)cc5)oc4cc3n2[C@H](C)C2CCCCC2)cc1 [Compound 10]
[6]
  binding protein recovered from phage clones: two clones encoded eukaryotic elongation factor 1A1 (eEF1A1)
[7]
  in vitro anticancer activity at single concentration: among the most active compounds
[8]
  binding of eEF1A in pull down: eEF1A did indeed bind
[4]
  killing of normal MCF10A cells: killed normal MCF10A cell in a similar manner as cancerous MCF-7 and MDA-MB-213 cells
[5]
  in vitro anticancer activity at single concentration: among the most active compounds
